Results from patent US20020026053A1, “Novel 3-(substituted) -2- indolinones compounds and use thereof as inhibitors of protein kinase activity” (priority 1997, published 2002).

Molecular target: T1, EGFR (Homo sapiens, UniProt P00533)
T1 construct: endogenous in cells; host or cells: A431 cells (lysate, captured with SUMO1 anti-EGFR antibody)
Assay: Biochemical EGFR Assay
Set-up: concentration or dose not given beside the values
Settings: protocol P.167
Summary of the method: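 Readout is ABTS absorbance at 410 nm after anti-phosphotyrosine and HRP-antibody detection of EGFR autophosphorylation. The kinase was immunocaptured from A431 lysate, exposed 30 min to test compound diluted 1:10 in TBS, then phosphorylated for 5 min with ATP/MnCl2 before an EDTA stop.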

T1 sequence (P00533 25-1210): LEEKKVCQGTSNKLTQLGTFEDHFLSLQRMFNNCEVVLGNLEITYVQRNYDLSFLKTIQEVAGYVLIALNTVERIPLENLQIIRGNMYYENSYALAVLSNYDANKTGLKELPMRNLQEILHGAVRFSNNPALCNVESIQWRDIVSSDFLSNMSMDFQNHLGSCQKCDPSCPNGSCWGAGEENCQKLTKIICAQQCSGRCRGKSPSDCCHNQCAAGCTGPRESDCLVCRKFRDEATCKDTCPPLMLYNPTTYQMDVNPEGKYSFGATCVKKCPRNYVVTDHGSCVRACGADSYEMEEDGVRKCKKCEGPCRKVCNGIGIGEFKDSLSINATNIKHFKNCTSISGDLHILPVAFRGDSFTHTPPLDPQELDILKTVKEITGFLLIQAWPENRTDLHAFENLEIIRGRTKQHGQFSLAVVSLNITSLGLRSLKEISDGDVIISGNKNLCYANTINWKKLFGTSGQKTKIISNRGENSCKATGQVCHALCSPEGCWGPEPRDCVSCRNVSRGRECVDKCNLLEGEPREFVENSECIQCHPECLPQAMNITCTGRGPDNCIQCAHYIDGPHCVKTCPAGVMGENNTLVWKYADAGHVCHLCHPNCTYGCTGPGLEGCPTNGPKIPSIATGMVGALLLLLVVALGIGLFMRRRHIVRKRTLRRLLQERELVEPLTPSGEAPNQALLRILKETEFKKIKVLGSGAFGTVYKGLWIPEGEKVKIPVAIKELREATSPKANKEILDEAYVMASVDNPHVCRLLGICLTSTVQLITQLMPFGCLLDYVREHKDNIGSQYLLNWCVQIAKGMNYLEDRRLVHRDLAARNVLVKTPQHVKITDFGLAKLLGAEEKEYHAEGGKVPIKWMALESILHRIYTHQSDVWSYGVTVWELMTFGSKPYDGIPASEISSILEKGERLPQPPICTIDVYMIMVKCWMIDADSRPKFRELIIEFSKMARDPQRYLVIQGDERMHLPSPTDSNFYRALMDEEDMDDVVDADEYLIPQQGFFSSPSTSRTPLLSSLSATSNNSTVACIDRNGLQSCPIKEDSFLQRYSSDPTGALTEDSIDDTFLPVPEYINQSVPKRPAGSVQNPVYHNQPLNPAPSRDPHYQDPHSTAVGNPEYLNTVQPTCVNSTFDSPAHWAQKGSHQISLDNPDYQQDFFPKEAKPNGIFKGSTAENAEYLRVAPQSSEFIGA

Row | SMILES | Biochem EGFR % Inhibition (P.167)
1 | O=C1Nc2ccc(S(=O)(=O)Nc3ccc(C(F)(F)F)cc3)cc2C1=Cc1ccc(CO)o1 [10739/E11] | −23.4%
2 | COc1ccc(C=C2C(=O)Nc3ccc(S(=O)(=O)N4CCOCC4)cc32)cc1C [10739/F02] | −3.6%
3 | O=C1Nc2ccc(S(=O)(=O)N3CCOCC3)cc2C1=Cc1cccc(OCc2ccccc2)c1 [10739/F03] | −10.8%
4 | O=C1Nc2ccc(S(=O)(=O)N3CCOCC3)cc2C1=Cc1ccc(OCc2ccccc2)cc1 [10739/F04] | −7.0%
5 | O=C1Nc2ccc(S(=O)(=O)N3CCOCC3)cc2C1=CC1COc2ccccc2O1 (stereo not shown) [10739/F05] | −16.4%
6 | O=C1Nc2ccc(S(=O)(=O)N3CCOCC3)cc2C1=Cc1ccc(O)cc1Cl [10739/F06] | −15.3%
7 | O=C1Nc2ccc(S(=O)(=O)N3CCOCC3)cc2C1=Cc1cc(O)c(O)c(O)c1 [10739/F07] | 62.4%
8 | COc1ccc(Oc2cccc(C=C3C(=O)Nc4ccc(S(=O)(=O)N5CCOCC5)cc43)c2)cc1 [10739/F08] | −19.1%
9 | CN(C)CCCOc1ccc(C=C2C(=O)Nc3ccc(S(=O)(=O)N4CCOCC4)cc32)cc1 [10739/F09] | −19.6%
10 | O=C1Nc2ccc(S(=O)(=O)N3CCOCC3)cc2C1=Cc1ccoc1 [10739/F10] | −16.8%
11 | O=C1Nc2ccc(S(=O)(=O)N3CCOCC3)cc2C1=Cc1ccc(CO)o1 [10739/F11] | −38.5%
12 | COc1ccc(C=C2C(=O)Nc3ccc(CCCl)cc32)cc1C [10739/G02] | −5.1%
13 | O=C1Nc2ccc(CCCl)cc2C1=Cc1cccc(OCc2ccccc2)c1 [10739/G03] | 2.4%
14 | O=C1Nc2ccc(CCCl)cc2C1=Cc1ccc(OCc2ccccc2)cc1 [10739/G04] | −12.3%
15 | O=C1Nc2ccc(CCCl)cc2C1=CC1COc2ccccc2O1 (stereo not shown) [10739/G05] | −23.0%
16 | O=C1Nc2ccc(CCCl)cc2C1=Cc1ccc(O)cc1Cl [10739/G06] | −31.2%
17 | O=C1Nc2ccc(CCCl)cc2C1=Cc1cc(O)c(O)c(O)c1 [10739/G07] | 10.0%
18 | COc1ccc(Oc2cccc(C=C3C(=O)Nc4ccc(CCCl)cc43)c2)cc1 [10739/G08] | −18.5%
19 | CN(C)CCCOc1ccc(C=C2C(=O)Nc3ccc(CCCl)cc32)cc1 [10739/G09] | −39.8%
20 | O=C1Nc2ccc(CCCl)cc2C1=Cc1ccoc1 [10739/G10] | −38.1%
21 | O=C1Nc2ccc(CCCl)cc2C1=Cc1ccc(CO)o1 [10739/G11] | −23.2%
22 | COc1ccc(C=C2C(=O)Nc3c(Br)cc(Br)c(C)c32)cc1C [10739/H02] | −12.3%
23 | Cc1c(Br)cc(Br)c2c1C(=Cc1cccc(OCc3ccccc3)c1)C(=O)N2 [10739/H03] | 10.0%
24 | Cc1c(Br)cc(Br)c2c1C(=Cc1ccc(OCc3ccccc3)cc1)C(=O)N2 [10739/H04] | −21.9%
25 | Cc1c(Br)cc(Br)c2c1C(=Cc1ccc(O)cc1Cl)C(=O)N2 [10739/H06] | −22.1%
26 | Cc1c(Br)cc(Br)c2c1C(=Cc1cc(O)c(O)c(O)c1)C(=O)N2 [10739/H07] | 10.9%
27 | COc1ccc(Oc2cccc(C=C3C(=O)Nc4c(Br)cc(Br)c(C)c43)c2)cc1 [10739/H08] | −28.5%
28 | Cc1c(Br)cc(Br)c2c1C(=Cc1ccoc1)C(=O)N2 [10739/H10] | −26.6%
